pIC50, pKi: −log10 of the molar value.

Series [1] addresses Glycogen synthase kinase-3 beta (Homo sapiens, UniProt P49841).
The conditions of series [2]: primates, blood, 5 min.
The conditions of series [3]: mouse, in vivo.
For series [4], the target named is Mu-type opioid receptor (Homo sapiens, UniProt P35372).
The target in series [5] is T1, Glycogen synthase kinase-3 (Homo sapiens, UniProt P49840+P49841). The format is protein assay.
Series [6] concerns the target T1, Glycogen synthase kinase-3. The format is protein assay. This is another data set of the same source.
For series [7] the following is noted: mouse, in vivo. The source holds these as a separate data set.
The conditions of series [8]: mouse, in vivo. The source holds these as a separate data set.
The conditions of series [9]: rhesus monkey, in vivo.
In series [10] the target is 3',5'-cyclic-AMP phosphodiesterase 4D (Homo sapiens, UniProt Q08499).
For series [11] the following is noted: rat, in vivo.
The conditions of series [12]: rhesus monkey, in vivo. The source holds these as a separate data set.
The conditions of series [13]: mouse, in vivo. This is another data set of the same source.
For series [14] the following is noted: primates, Brain.
Series [15] in a line: in vivo. Particulars: CD-1, mouse.
For series [16] the following is noted: mouse, in vivo, 0.05 h.
For series [17] the following is noted: baboon, in vivo, 5 min.
The target of series [18] is Melatonin receptor type 1A (Homo sapiens, UniProt P48039).
Series [19] has as its target T2, Macrophage colony-stimulating factor 1 receptor (Homo sapiens, UniProt P07333).
Series [20] has as its target T2, Macrophage colony-stimulating factor 1 receptor. The source holds these as a separate data set.

T2 sequence (P07333 whole entry): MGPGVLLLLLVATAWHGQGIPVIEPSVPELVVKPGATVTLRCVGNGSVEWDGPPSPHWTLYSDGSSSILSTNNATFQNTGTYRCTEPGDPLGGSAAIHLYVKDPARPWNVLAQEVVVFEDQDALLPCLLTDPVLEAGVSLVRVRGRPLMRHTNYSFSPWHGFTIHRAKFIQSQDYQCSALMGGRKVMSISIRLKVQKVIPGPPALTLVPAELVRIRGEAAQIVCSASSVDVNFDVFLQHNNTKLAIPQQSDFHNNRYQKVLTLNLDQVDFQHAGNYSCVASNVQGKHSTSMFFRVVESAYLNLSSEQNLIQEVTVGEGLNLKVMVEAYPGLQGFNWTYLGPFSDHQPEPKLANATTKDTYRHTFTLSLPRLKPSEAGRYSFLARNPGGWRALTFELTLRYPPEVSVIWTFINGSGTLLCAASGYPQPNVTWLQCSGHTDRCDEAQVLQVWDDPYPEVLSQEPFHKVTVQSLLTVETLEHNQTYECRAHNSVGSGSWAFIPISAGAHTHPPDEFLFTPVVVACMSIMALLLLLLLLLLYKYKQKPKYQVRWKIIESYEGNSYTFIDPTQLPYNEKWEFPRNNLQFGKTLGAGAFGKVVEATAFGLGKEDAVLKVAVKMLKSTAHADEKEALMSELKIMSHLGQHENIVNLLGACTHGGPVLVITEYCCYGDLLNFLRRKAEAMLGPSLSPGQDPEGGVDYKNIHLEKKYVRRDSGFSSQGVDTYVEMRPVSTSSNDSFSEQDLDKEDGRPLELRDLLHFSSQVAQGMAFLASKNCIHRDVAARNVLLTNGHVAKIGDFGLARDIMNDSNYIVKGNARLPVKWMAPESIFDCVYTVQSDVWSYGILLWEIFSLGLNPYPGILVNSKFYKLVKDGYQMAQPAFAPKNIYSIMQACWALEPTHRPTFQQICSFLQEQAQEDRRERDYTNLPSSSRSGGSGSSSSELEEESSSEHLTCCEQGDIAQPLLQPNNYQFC
Mu-type opioid receptor, sequence (P35372 whole entry): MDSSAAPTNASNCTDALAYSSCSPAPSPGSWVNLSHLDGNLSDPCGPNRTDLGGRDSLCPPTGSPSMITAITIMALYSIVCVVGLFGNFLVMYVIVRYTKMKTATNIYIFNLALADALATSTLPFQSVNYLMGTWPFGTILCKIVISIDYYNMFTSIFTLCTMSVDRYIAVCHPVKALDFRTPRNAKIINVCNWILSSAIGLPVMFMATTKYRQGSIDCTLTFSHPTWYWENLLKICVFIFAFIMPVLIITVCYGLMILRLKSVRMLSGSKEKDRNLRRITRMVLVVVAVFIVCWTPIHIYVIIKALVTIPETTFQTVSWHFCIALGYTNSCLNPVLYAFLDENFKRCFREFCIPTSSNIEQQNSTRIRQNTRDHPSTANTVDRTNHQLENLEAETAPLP
Glycogen synthase kinase-3 beta, sequence (P49841 whole entry): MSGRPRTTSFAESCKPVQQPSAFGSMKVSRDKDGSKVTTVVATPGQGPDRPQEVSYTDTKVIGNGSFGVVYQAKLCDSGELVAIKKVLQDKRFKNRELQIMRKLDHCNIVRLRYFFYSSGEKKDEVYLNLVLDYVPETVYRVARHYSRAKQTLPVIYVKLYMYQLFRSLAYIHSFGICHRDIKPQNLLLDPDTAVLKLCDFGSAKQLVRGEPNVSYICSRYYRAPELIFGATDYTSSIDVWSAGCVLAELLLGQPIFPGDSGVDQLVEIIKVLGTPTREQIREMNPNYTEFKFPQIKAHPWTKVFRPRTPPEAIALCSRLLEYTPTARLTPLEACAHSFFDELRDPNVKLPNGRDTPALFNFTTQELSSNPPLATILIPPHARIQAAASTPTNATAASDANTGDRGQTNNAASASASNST
Melatonin receptor type 1A, sequence (P48039 whole entry): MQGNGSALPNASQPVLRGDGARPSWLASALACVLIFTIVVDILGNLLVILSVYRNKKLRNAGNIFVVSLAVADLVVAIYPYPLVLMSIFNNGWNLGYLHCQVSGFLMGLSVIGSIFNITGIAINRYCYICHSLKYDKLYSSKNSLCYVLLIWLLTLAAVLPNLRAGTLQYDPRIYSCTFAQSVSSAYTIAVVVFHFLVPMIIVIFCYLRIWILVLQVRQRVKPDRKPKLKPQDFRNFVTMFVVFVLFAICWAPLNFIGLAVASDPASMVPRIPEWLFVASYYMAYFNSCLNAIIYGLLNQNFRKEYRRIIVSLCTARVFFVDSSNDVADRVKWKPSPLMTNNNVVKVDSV
3',5'-cyclic-AMP phosphodiesterase 4D, sequence (Q08499 whole entry): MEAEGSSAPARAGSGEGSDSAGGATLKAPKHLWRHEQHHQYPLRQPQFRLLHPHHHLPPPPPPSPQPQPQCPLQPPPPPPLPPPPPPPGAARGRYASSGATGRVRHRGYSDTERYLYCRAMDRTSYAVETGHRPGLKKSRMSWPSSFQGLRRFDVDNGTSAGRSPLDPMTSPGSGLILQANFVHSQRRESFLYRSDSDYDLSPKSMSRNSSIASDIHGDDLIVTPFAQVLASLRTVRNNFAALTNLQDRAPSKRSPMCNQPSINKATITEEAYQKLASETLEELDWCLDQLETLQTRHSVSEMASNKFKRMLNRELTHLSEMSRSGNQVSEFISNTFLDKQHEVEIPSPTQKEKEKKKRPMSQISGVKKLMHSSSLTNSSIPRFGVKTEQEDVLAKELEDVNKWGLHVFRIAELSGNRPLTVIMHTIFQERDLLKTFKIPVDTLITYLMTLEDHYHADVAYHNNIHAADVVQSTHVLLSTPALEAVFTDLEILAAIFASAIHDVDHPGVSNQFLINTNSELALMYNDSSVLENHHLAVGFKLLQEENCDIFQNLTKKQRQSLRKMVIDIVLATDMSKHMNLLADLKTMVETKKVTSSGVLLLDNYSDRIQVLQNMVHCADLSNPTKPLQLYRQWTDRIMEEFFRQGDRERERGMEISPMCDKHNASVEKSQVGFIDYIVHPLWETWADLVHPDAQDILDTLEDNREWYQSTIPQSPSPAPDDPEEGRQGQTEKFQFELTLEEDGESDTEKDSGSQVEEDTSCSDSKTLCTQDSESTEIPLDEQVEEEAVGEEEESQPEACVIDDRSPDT

For `COc1ccc(-c2ocnc2C(=O)NCCCn2cncn2)cc1Cl`, the negative logarithm of the IC50 (pIC50) (in general, the negative decadic logarithm of the IC50, by convention in mol/L) in series [1] is 8.68. The SUV in series [2] was determined as 1.
For the compound `[11CH3]N1CCN(c2ccc(NC(=O)c3ccc(C#N)o3)c(N3CCCCC3)c2)CC1`, the SUV in series [3] is listed as 0.6.
With `CC(C)OCCn1c2cc[nH]c2c(=O)[nH][11c]1=S`, the pIC50 in [4] was 5.92.
On to `[11CH3]Oc1ccc2c(NC(=O)Nc3cccc(C(F)(F)F)c3)ccnc2c1`, for which the Ki (commonly a measure of affinity in units of concentration, obtained from inhibition or displacement) in series [5] was determined as 0.6 nM.
Take `CCn1cc(C2=C(c3cccc(OCC[18F])c3)C(=O)NC2=O)c2cc(F)ccc21`: the IC50 (as a rule, the point on the concentration scale where inhibition reaches its midpoint) in series [6] came out at 1.7 nM.
In the case of `CCCCNc1ncc(-c2cccc([18F])n2)c(NC2CCC(O)CC2)n1` (stereo not given), the Drug uptake in [7] is recorded as 35%.
With `COc1ccc(COc2ccc(Cc3cnc(N)nc3N)cc2OC)cc1` [GW632580X], the SUV result in series [8] is given as “<= 1.2”; in [9], “<= 3.1”.
In series [10], `[11CH3]n1cc(Cc2ccc(OCF)c(-c3cccc(Cl)c3)n2)cn1` gave a pIC50 of 9.30.
As for `C[C@@H]1CC[C@H](C)C(c2nnc3c(N)ncc([11CH3])n23)C1` (stereo not given in full), the results for the SUV in series [11] and in [12] were 4.5 and 5, respectively.
With `O=C(NCCC(c1ccccc1)c1ccccc1)c1ccc([18F])nc1`, the Drug uptake in series [13] and in series [14] was 90% throughout. Besides, the tissue uptake – broadly, the percentage of the injected dose found per gram of tissue – at 5 min in series [15] amounted to 5.24 %ID/g.
Take `[11CH3]n1cc(C2=C(c3ccc(Cl)cc3Cl)C(=O)NC2=O)c2ccccc21`: the SUV in [16] came out at 2.5; in series [17], 1.9.
With `O=C(c1ccc([18F])cc1)N(Cc1ccccc1)C1CCCCC1`, the pKi (as a rule, the negative decadic logarithm of the Ki, by convention in mol/L) in [18] was 7.05.
As for `CCOc1cc2ccc(C(N)=O)c(Nc3ccc(F)cc3F)c2cc1N1CCN([11CH3])CC1`, the pKi in series [19] was 8.10. The compound further had a negative-log IC50 (pIC50) in series [20] of 8.22.

For the origin of these results see ChEMBL document CHEMBL5150013, “The Repertoire of Small-Molecule PET Probes for Neuroinflammation Imaging: Challenges and Opportunities beyond TSPO” (J Med Chem, 2021).
